Assay results as given in patent US20260071220A1, “CONJUGATE OF NUCLEOTIDE ANALOG-CONTAINING DOUBLE-STRANDED RNAI ANALOG” (BaseCure Therapeutics LLC, priority 2022, published 2026).
Where “and” joins values, the source holds several entries; their conditions need not be identical. Identical values can stand only once. In the oligonucleotide strings, read from the 5' end, every base follows the letter of its sugar. An asterisk marks phosphorothioate; unmarked linkages are phosphodiester. Other units and linkages are bracketed, terminal groups are in braces. A string of capitals states the bases alone. {D01} = GalNAc ligand D01, attached to sense strand by a phosphodiester bond; m = 2'-O-methyl; f = 2'-fluoro

What was measured:
AGT protein = experiment: In vivo PD experiment of non-human primate cynomolgus monkey (plasma AGT protein); details: for plasma AGT protein level after administration/before administration, Average: group average; for plasma AGT protein level after administration/before administration: individual animal
Description: The downregulation degree of cynomolgus monkey plasma AGT by the sample to be tested was observed through a non-human primate cynomolgus monkey model highly homologous to a human in AGT gene.
2. Experimental materials: cynomolgus monkeys, 1×PBS (phosphate buffer solution), AD-85481 (US2021095290), and a conjugate of the present invention.
10 cynomolgus monkeys with the weight of 2-3 kg were purchased, and the animals were adapted to quarantine for one week after arriving at an animal room.
On Day −6, cynomolgus monkeys were divided into groups at random according to weight data, with 2 cynomolgus monkeys in each group, the AGT protein concentrations in plasmas of all the cynomolgus monkeys were detected after grouping as an experimental data baseline for each group.
Administration was performed on Day 1. Group 1 was dosed with 1×PBS; group 2 was subcutaneously injected with AD-85481 at the dose of 0.3 mpk; group 3 was subcutaneously injected with AD-85481 at the dose of 3 mpk; group 4 was subcutaneously injected with the conjugate 2 of the present invention at the dose of 0.3 mpk; group 5 was subcutaneously injected with the conjugate 2 of the present invention at the dose of 3 mpk. Blood was collected on Day 1, 2, 4, 8, 15, 22, 29, 32, 35, 43, 57, 71 after administration to detect the AGT protein concentration in plasma of each cynomolgus monkey. By comparing the AGT protein concentration in plasma after administration to the AGT protein concentration on Day −6, the relative downregulation proportion of the AGT proteins in each group of animals was obtained.
4. In the table, the data represent AGT gene expression level after administration/AGT gene expression level before administration.

AGT mRNA = experiment: Free uptake experiment of PHH cells (AGT mRNA by qPCR); type: cell-based, human; details: 48 h
Protocol: A sample to be tested was incubated with primary human hepatocytes. The downregulation degree of AGT mRNA by the sample to be tested was evaluated.
Primary human hepatocytes (PHH), RNeasy® 96 Kit (12) (QIAGEN-74182), FastKing RT Kit (With gDNase) (Tiangen-KR116-02), TaqMan Gene Expression Assay (GAPDH, Thermo, Assay ID-Hs02786624_g1), TaqMan Gene Expression Assay (AGT, Thermo, Assay ID-Hs01586213_m1).
A conjugate of the present invention was diluted with a PBS solution until the obtained concentration was 10 times the concentration to be tested. 10 uL of siRNA was transferred to a 96-well plate. PHH cells were thawed and seeded to the 96-well plate, and the final cell density was 5.4×10^5 cells/well. The conjugate of the present invention was tested for 10 concentration points, and the highest concentration was 500 nM, with 4-fold dilution.
The cells were incubated for 48 h under the conditions of 37° C. and 5% CO2, and the state of the cells was observed using a microscope.
After the incubation was completed, the cells were lysed, all of RNA was extracted from the obtained lysate using RNeasy® 96 Kit (QIAGEN-74182), and underwent reverse transcription using FastKing RT Kit (With gDNase) (Tiangen-KR116-02) to obtain cDNA. AGT cDNA was detected by qPCR.

“Conjugate 2: Double-stranded RNAi analog against AGT, D01 GalNAc ligand on sense strand; sense SEQ ID NO: 6, antisense SEQ ID NO: 2 containing Z (sense mA*mU*fCfCmAfCfAfAmUmGmAmGmAfGmUmAmCmA-{D01}; antisense CUCACAUGUACNCUCAUUGUGGAUGACGA; antisense: chemistry not given here; antisense strand modified, includes nucleotide analog Z, further chemistry not fully specified)” was tested. Which “plasma AGT protein level after administration/before administration, Average” value (AGT protein; 0.3 mg/kg single s.c., Day 22 vs Day -6) did it give?
The value was 25.72%.

What about the “plasma AGT protein level after administration/before administration, Average” value (AGT protein; 0.3 mg/kg single s.c., Day 71 vs Day -6) of the same substance?
Its value is 51.76%.

What about the “plasma AGT protein level after administration/before administration, Average” value (AGT protein; 3 mg/kg single s.c., Day 22 vs Day -6) of the same substance?
The value was 2.47%.

What about the “plasma AGT protein level after administration/before administration, Average” value (AGT protein; 3 mg/kg single s.c., Day 71 vs Day -6) of the same substance?
The value was 9.88%.

And the “plasma AGT protein level after administration/before administration” value (AGT protein; 0.3 mg/kg single s.c., Day 22 vs Day -6, 0.3 mg/kg)?
The value was 28.47% and 22.96%.

And the “plasma AGT protein level after administration/before administration” value (AGT protein; 0.3 mg/kg single s.c., Day 71 vs Day -6, 0.3 mg/kg)?
The value was 55.17% and 48.35%.

What about the “plasma AGT protein level after administration/before administration” value (AGT protein; 3 mg/kg single s.c., Day 22 vs Day -6, 3 mg/kg) of the same substance?
The value was 0.84% and 4.09%.

And the “plasma AGT protein level after administration/before administration” value (AGT protein; 3 mg/kg single s.c., Day 71 vs Day -6, 3 mg/kg)?
Its value is 10.84% and 8.92%.

And the “Emax (remaining AGT mRNA)” value (AGT mRNA)?
Its value is 5%.

What about the EC50 (AGT mRNA; AGT mRNA, read-out: Absolute EC50) of the same substance?
Its EC50 is 0.197 nM.

And the “Log (concentration)” value (AGT mRNA; log of the absolute EC50 in nM)?
The value was −0.705.
